What was measured:
[1] = test system: MAIT cells; assay: mBSA-induced arthritis in wild type mice treated with Ac6FP or PBS; format: in vivo; conditions: wild type male mice, intraperitoneal twice a week
Description: Arthritis was induced by intra-articular injection of methylated bovine serum albumin (mBSA) in MR1^−/− (depleted in MAIT cells) and wild type C57BL/6 mice, previously immunized with mBSA. We included 9 mice in each group, only females, which were 6 to 8 weeks old. Mice were daily evaluated for signs of joint inflammation, assessed by measuring tarsal thickness and scored on a scale of 0-4, where 0=no change, 1=local swelling and redness of digits, 2=mild swelling and redness, 3=severe swelling and redness, 4=necrosis. Mice were sacrificed on day 8, and the paws were separated, fixed with 4% paraformaldehyde and decalcified for histopathological assessment. All mice developed arthritis, with a peak of inflammation at day 1.
Arthritis was induced by intra-articular injection of methylated bovine serum albumin (mBSA) in wild type mice, treated with Acetyl-6-formylpterin (Ac6FP), a non-activating ligand of MAIT cells or PBS, previously immunized with mBSA. Ac6FP or PBS were injected twice a week in intraperitoneal. We included 6 wild type mice in each group, only males, which were 8 weeks old. Mice were daily evaluated as described previously. All mice developed arthritis, with a peak of inflammation at day 1.
Values are the mean+/−SEM of 6 mice in each group. Test: Student T test. Ac6FP: Acetyl-6-formylpterin. AUC: Area Under Curve. […]

[2] = test system: rheumatoid arthritis; conditions: cited from earlier work

SMILES	clinical score (scale 0-4) compared to PBS group ([1]; daily evaluation)	area under curve (AUC) of clinical score, median ([1]; n=6, vs. 5.5 in PBS group, p=0.07)	patients reaching remission states ([2]; RA patients at 6-12 months)	patients reaching low disease activity states ([2]; early RA patients, with or without corticosteroids)
CC(=O)Nc1nc2ncc(C=O)nc2c(=O)[nH]1 [Ac6FP, Acetyl-6-formylpterin]	lower clinical score	3	–	–
CN(Cc1cnc2nc(N)nc(N)c2n1)c1ccc(C(=O)N[C@@H](CCC(=O)O)C(=O)O)cc1 [MTX, methotrexate]	–	–	10-20%	25-50%

— patent US20260069594A1, “USE OF AN AGENT CAPABLE OF INHIBITING THE ACTIVATION OF MAIT CELLS FOR THE TREATMENT OF RHEUMATOID ARTHRITIS” (INSTITUT NATIONAL DE LA SANTÉ ET DE LA RECHERCHE MÉDICALE, priority 2022, published 2026)
